Source: patent US20090093069A1, “Topiramate Immunoassays” (ARK Diagnostics, Inc., priority 2007, published 2009)

These compounds were tested on antibody from rabbit #11341 (assay: Crossreactivity to topiramate metabolites in the homogeneous enzyme immunoassay (HITACHI 917)). Conditions: metabolite 50.0 μg/mL, in the presence of 20 μg/mL topiramate.
Type: binding
Description: % Crossreactivity=100×(“apparent concentration of measurand”/“concentration of crossreactant”)
(§1) The ARK Assay for topiramate is conducted using a liquid, ready-to-use, two-reagent kit. […] Topiramate containing sample is incubated with antibody reagent followed by the addition of the enzyme conjugate reagent. The enzyme conjugate activity decreases upon binding to the antibody. The enzyme conjugate, which is not bound to the antibody, catalyzes the oxidation of glucose 6-phosphate (G6P). The oxidation of G6P is coupled with the reduction of NAD^+ to NADH, which can be measured at 340 nm. The change in the absorbance at 340 nm can be measured spectrophotometrically. The topiramate concentration in a specimen can be measured in terms of G6PDH activity. The increase in the rate at 340 nm is due to the formation of NADH and is proportional to the enzyme conjugate activity. […] The assay rate increases with increasing the concentration of drug in the sample.
The apparent topiramate concentration for the metabolite is the difference in concentration with metabolite minus the concentration without metabolite.

Q: Which “% Cross Reactivity” value does the source give for `CC1(C)O[C@H]2[C@@H]3O[C@](C)(CO)O[C@@H]3CO[C@@]2(COS(N)(=O)=O)O1` [9-OH-Topiramate, 9-hydroxytopiramate] here?
A: 3.18%

Q: How did the “% Cross Reactivity” value turn out when `CC1(C)O[C@H]2[C@@H]3O[C@@](C)(CO)O[C@@H]3CO[C@@]2(COS(N)(=O)=O)O1` [10-OH-Topiramate, 10-hydroxytopiramate] was run?
A: 3.20%

What follows are compounds tested on rabbit polyclonal antibody #11341 (assay: Coadministered drug interference study in the homogeneous enzyme immunoassay (HITACHI 917)). Conditions: 5.0 μg/mL drug added to human serum containing 20.0 μg/mL topiramate.
Type: binding
Description: The antibody was added into the antibody diluent to prepare the antibody reagent. The antibody reagent consists of antibody as prepared above, buffer, stabilizers, preservatives, and the substrates for the enzyme conjugate NAD and glucose 6 phosphate. […] The enzyme conjugate reagent consists of the conjugate, buffer, stabilizers and preservatives.
as §1
A high concentration of each coadministered drug was spiked into normal human serum with containing topiramate 20 μg/mL and assayed. Each sample was assayed in duplicate. […] The percentage concentration above 20.0 μg/mL of topiramate was calculated for each coadministered drug tested.

Q: `NC(N)=Nc1nc(CSCCC(N)=NS(N)(=O)=O)cs1` [Famotidine] was tested. Which “% Interference [(20.0 μg/mL Topiramate) − (Result)] ÷ (drug conc.) × 100” value (from here on “% Interference”) did it give?
A: −0.2%

Same assay, conditions: 10.0 μg/mL drug added to human serum containing 20.0 μg/mL topiramate

Q: For `NS(=O)(=O)c1cc(C(=O)O)c(NCc2ccco2)cc1Cl` [Furosemide], which “% Interference” value is on record?
A: 0.10%

Same assay, conditions: 50.0 μg/mL drug added to human serum containing 20.0 μg/mL topiramate

Q: `CC(=O)Nc1nnc(S(N)(=O)=O)s1` [Acetazolamide] was tested. Which “% Interference” value did it give?
A: 0.56%

Q: Which “% Interference” value does the source give for `CC(=O)Nc1ccc(O)cc1` [Acetominophen] here?
A: −0.38%

Q: Which “% Interference” value does the source give for `CC(C)NCC(O)COc1ccc(CC(N)=O)cc1` (stereo not drawn) [Atenolol] here?
A: −0.40%

Q: `O=C1CN=C(c2ccccc2Cl)c2cc([N+](=O)[O-])ccc2N1` [Clonazepam] was tested. Which “% Interference” value did it give?
A: 0.70%

Q: `CN1C(=O)CN=C(c2ccccc2)c2cc(Cl)ccc21` [Diazepam] was tested. Which “% Interference” value did it give?
A: 0.64%

Q: How did the “% Interference” value turn out when `CC(C)Cc1ccc(C(C)C(=O)O)cc1` (stereo not drawn) [Ibuprofen] was run?
A: 2.30%

Q: Which “% Interference” value does the source give for `O=C1NC(=O)C(c2ccccc2)(c2ccccc2)N1` [Phenytoin] here?
A: 0.32%

Same assay, conditions: 100.0 μg/mL drug added to human serum containing 20.0 μg/mL topiramate

Q: With `CC(=O)Oc1ccccc1C(=O)O` [Acetylsalicyclic Acid] as the compound, how does the “% Interference” value read?
A: 0.25%

Q: How did the “% Interference” value turn out when `Cn1c(=O)c2c(ncn2C)n(C)c1=O` [Caffeine] was run?
A: 0.35%

Q: `NC(=O)N1c2ccccc2C=Cc2ccccc21` [Carbamazepine] was tested. Which “% Interference” value did it give?
A: −0.43%

Q: How did the “% Interference” value turn out when `NS(=O)(=O)c1cc(C2(O)NC(=O)c3ccccc32)ccc1Cl` (stereo not drawn) [Chlorthalidone] was run?
A: 0.16%

Q: With `NCC1(CC(=O)O)CCCCC1` [Gabapentin] as the compound, how does the “% Interference” value read?
A: −0.49%

Q: Which “% Interference” value does the source give for `Nc1nnc(-c2cccc(Cl)c2Cl)c(N)n1` [Lamotrogine] here?
A: −1.02%

Q: Which “% Interference” value does the source give for `COCCc1ccc(OCC(O)CNC(C)C)cc1` (stereo not drawn) [Metoprolol] here?
A: 0.35%

Q: For `CCC1(c2ccccc2)C(=O)NC(=O)NC1=O` [Phenobarbitol], which “% Interference” value is on record?
A: 1.08%

Q: How did the “% Interference” value turn out when `CCC1(c2ccccc2)C(=O)NCNC1=O` [Primidone] was run?
A: −1.83%

Q: For `COc1ccc(CCN(C)CCCC(C#N)(c2ccc(OC)c(OC)c2)C(C)C)cc1OC` (stereo not drawn) [Verapamil], which “% Interference” value is on record?
A: 1.07%

Same assay, conditions: 200.0 μg/mL drug added to human serum containing 20.0 μg/mL topiramate

Q: For `CC[C@@H](C(N)=O)N1CCCC1=O` [Levetiracetam], which “% Interference” value is on record?
A: −0.45%

Q: How did the “% Interference” value turn out when `CCCC(CCC)C(=O)O` [Valproic Acid] was run?
A: 0.50%

Q: With `NS(=O)(=O)Cc1noc2ccccc12` [Zonisamide] as the compound, how does the “% Interference” value read?
A: 0.08%

Same assay, conditions: 500.0 μg/mL drug added to human serum containing 20.0 μg/mL topiramate

Q: Which “% Interference” value does the source give for `CCC1(C)CC(=O)NC1=O` (stereo not drawn) [Ethosuxamide] here?
A: −0.09%

Q: For `NC(=O)OCC(COC(N)=O)c1ccccc1` [Felbamate], which “% Interference” value is on record?
A: 0.20%

Same assay, conditions: 750.0 μg/mL drug added to human serum containing 20.0 μg/mL topiramate

Q: For `O=C(O)c1ccccc1O` [Salicylic Acid], which “% Interference” value is on record?
A: −5.73%

Q: `CCCCNC(=O)NS(=O)(=O)c1ccc(C)cc1` [Tolbutamide] was tested. Which “% Interference” value did it give?
A: −0.08%

Same assay, conditions: 2000.0 μg/mL drug added to human serum containing 20.0 μg/mL topiramate

Q: How did the “% Interference” value turn out when `Nc1ccc(S(N)(=O)=O)cc1` [Sulfanilamide] was run?
A: −0.16%

These compounds were tested on antibodies raised with immunogens (10-KLH, 12-KLH, 12-L-KLH, 19-KLH, 22-KLH and 25-KLH) (assay: Enzyme-based assay format, reactivity of antibodies raised with the immunogens). Conditions: not given.
Type: binding
Text: All the prepared haptens have utility for KLH and G6PDH bio-conjugation. immunogens (10-KLH, 12-KLH, 12-L-KLH, 19-KLH, 22-KLH and 25-KLH) were used to raise antibodies.

Q: `CC1(C)O[C@@H]2[C@@H](CO[C@@]3(CO)OC(C)(C)O[C@@H]23)O1` [diacetonefructose] was tested. Which “reactivity of the antibodies” value did it give?
A: good reactivity
